This is an account of results in patent US8232272B2, “Benzimidazoledihydrothiadiazinone derivatives as fructose-1,6-bisphosphatase inhibitors, and pharmaceutical compositions comprising same” (Merck Patent Gesellschaft mit beschränkter Haftung, priority 2007, dated 2012).

The structures appear in SMILES notation. Structures can show the parent of a compound that is named as a salt.

Series [1] has as its target T1, recombinant human liver fructose-1,6-bisphosphatase (Homo sapiens, UniProt P09467).
T1 sequence (P09467 1-338): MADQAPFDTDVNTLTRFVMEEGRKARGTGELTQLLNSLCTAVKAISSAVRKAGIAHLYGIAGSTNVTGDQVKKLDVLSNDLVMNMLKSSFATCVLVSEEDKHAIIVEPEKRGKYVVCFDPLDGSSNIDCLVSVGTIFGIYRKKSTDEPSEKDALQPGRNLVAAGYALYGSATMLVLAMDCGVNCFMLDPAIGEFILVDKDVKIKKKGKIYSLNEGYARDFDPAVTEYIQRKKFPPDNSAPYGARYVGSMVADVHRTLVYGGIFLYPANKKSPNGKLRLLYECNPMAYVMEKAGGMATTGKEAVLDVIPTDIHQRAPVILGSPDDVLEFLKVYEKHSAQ
Put plainly: Inhibition of recombinant human liver fructose-1,6-bisphosphatase (spectrophotometric coupled enzyme assay). Format: biochemical. As to conditions: 0.167 mM fructose-1,6-bisphosphate, pH 7.5, room temperature, 30 minutes at 340 nm, read-out: Inhibition of human F-1,6-BPase IC50.
Text: […]

In series [2] the test system is rat hepatocyte primary cultures (hepatic glucose production). Kind of series: Hepatic production of glucose in rat hepatocyte primary cultures. Particulars: rat hepatocytes incubated 3 hours with dihydroxyacetone (DHA) as substrate, control = DHA without compounds. It counts as cell-based, Wistar rat. The text has this:
Effects of the Various Compounds Described Previously on the Hepatic Production of Glucose in Rat Hepatocyte Primary Cultures
The hepatocytes are isolated from Wistar rat liver via the collagenase perfusion technique described by Seglen (Methods Cell Biol. 1975; 13, 29-83). The cell viability is confirmed by the exclusion test with trypan blue. The isolated hepatocytes are suspended in a William's medium supplemented with foetal calf serum (10%) in 6-well plates. After a 4-hour attachment period, the medium is aspirated to remove the cell debris and replaced with a serum-free and glucose-free MEM medium. The hepatocytes are then cultured for 16 to 18 hours (37° C.; 5% CO2). At the end of culturing and after having aspirated the medium, the glucose production is measured by incubating the hepatocytes for 3 hours in a Krebs buffer supplemented with dihydroxyacetone (DHA) as neoglucogenesis substrate, in the presence or absence of the various compounds described previously. The amount of glucose in the medium is measured in each culture well via a test with glucose oxidase (GOD). The cell protein content is evaluated via the Lowry method. The results are expressed in nanomoles of glucose produced per mg of cell protein. The activity of the test compounds is expressed as a percentage of the control (production of glucose in the presence of DHA but without compounds).
Inhibition of Hepatic Glucose Production

What is called melting point is the temperature, or range, at which the solid turns liquid. Compound `COc1cccc(-c2nc3cc(C4=NNC(=O)SC4C)ccc3n2CC(C)C)c1` (stereo not shown) displayed a melting point of 100 to 105 °C.

Compound `COc1cccc(-c2nc3cc(C4=NNC(=O)SC4)ccc3n2CC(C)C)c1` [Example 11, 5-[1-isobutyl-2-(3-methoxyphenyl)-1H-benzimidazol-5-yl]-3,6-dihydro-2H-1,3,4-thiadiazin-2-one] registered a melting point of 207 to 209 °C. On the same count and under the same terms, to `CCn1c(-c2cccc(F)c2)nc2cc(C3=NNC(=O)SC3)ccc21` [Example 11-4, 5-[1-ethyl-2-(3-fluorophenyl)-1H-benzimidazol-5-yl]-3,6-dihydro-2H-1,3,4-thiadiazin-2-one] belongs 214 to 216 °C; to `CCCC1SC(=O)NN=C1c1ccc2c(c1)nc(-c1cccc(C(F)(F)F)c1)n2C` (stereo not shown) [Example 11-5, 5-{1-methyl-2-[3-(trifluoromethyl)phenyl]-1H-benzimidazol-5-yl}-6-propyl-3,6-dihydro-2H-1,3,4-thiadiazin-2-one], 190 to 192 °C.

Turning to `CCn1c(-c2cccc(OC)c2)nc2cc(C3=NNC(=O)SC3)ccc21` [Example 11-6, 5-[1-ethyl-2-(3-methoxyphenyl)-1H-benzimidazol-5-yl]-3,6-dihydro-2H-1,3,4-thiadiazin-2-one], the melting point fell in the range of 221 to 223 °C. The IC50 is the concentration that inhibits the measured activity by half. Regarding `CC1SC(=O)N(C(C)C)N=C1c1ccc2c(c1)nc(-c1cccc(F)c1)n2C` (stereo not shown) [Example 12-3, 5-[2-(3-fluorophenyl)-1-methyl-1H-benzimidazol-5-yl]-3-isopropyl-6-methyl-3,6-dihydro-2H-1,3,4-thiadiazin-2-one], the IC50 in series [1] stood at 7 µM.

`CCCN1N=C(c2ccc3c(c2)nc(-c2cccc(F)c2)n3C)C(C)SC1=O` (stereo not shown) [Example 12-6, 5-[2-(3-fluorophenyl)-1-methyl-1H-benzimidazol-5-yl]-6-methyl-3-propyl-3,6-dihydro-2H-1,3,4-thiadiazin-2-one]: in series [1], the IC50 amounted to 8.5 µM. Take `COc1cccc(-c2nc3cc(C4=NN(C)C(=O)SC4)ccc3n2C2CCCCCC2)c1` [Example 12-7, 5-[1-cycloheptyl-2-(3-methoxyphenyl)-1H-benzimidazol-5-yl]-3-methyl-3,6-dihydro-2H-1,3,4-thiadiazin-2-one]: the 50% inhibitory concentration (IC50) in series [1] stood at 36 µM. As for `COc1cccc(-c2nc3cc(C4=NNC(=O)SC4C)ccc3[nH]2)c1` (stereo not shown) [Example 26, 5-[2-(3-methoxyphenyl)-1H-benzimidazol-5-yl]-6-methyl-3,6-dihydro-2H-1,3,4-thiadiazin-2-one], in series [2], the “Hepatic glucose production. % of the control at 30 μM” value (“Hepatic glucose production. %” for short) is given as 38 % of the control. For `COc1cc(-c2nc3cc(C4=NNC(=O)SC4C)ccc3[nH]2)ccc1[S+](C)[O-]` (stereo not shown) [Example 26-3, 5-{2-[3-methoxy-4-(methylsulfinyl)phenyl]-1H-benzimidazol-5-yl}-6-methyl-3,6-dihydro-2H-1,3,4-thiadiazin-2-one hydrochloride], the IC50 in series [1] came to 6.4 µM. In addition, the “Hepatic glucose production. %” value in series [2] is recorded as 34 % of the control. In the case of `CC1SC(=O)NN=C1c1ccc2[nH]c(-c3ccc(-n4ccnc4)cc3)nc2c1` (stereo not shown) [Example 26-4, 5-{2-[4-(1H-imidazol-1-yl)phenyl]-1H-benzimidazol-5-yl}-6-methyl-3,6-dihydro-2H-1,3,4-thiadiazin-2-one dihydrochloride], the half-maximal inhibitory concentration (IC50) in series [1] stood at 3.6 µM. Also, in series [2], the “Hepatic glucose production. %” value is reported as 28 % of the control.
